≈ marks a conversion by molar mass, not a printed value.
Columns and labels:
[1] = tested on: A-431; assay: cells; type: functional, cell-based; conditions: Homo sapiens
Description: Inhibition of A431 cell proliferation

[2] = tested on: SW-620; assay: cells; type: functional, cell-based; conditions: Homo sapiens
Description: Inhibition of SW-620 cell proliferation

[3] = tested on: SK-BR-3; assay: cells; type: functional, cell-based; conditions: Homo sapiens
Description: Inhibition of SKBR-3 cell proliferation

[4] = target: Receptor tyrosine-protein kinase erbB-2 (Homo sapiens, UniProt P04626)
Description: Inhibition of human epidermal growth factor receptor-2 autophosphorylation

[5] = target: Epidermal growth factor receptor (Homo sapiens, UniProt P00533)
Chain of Epidermal growth factor receptor (P00533 whole entry): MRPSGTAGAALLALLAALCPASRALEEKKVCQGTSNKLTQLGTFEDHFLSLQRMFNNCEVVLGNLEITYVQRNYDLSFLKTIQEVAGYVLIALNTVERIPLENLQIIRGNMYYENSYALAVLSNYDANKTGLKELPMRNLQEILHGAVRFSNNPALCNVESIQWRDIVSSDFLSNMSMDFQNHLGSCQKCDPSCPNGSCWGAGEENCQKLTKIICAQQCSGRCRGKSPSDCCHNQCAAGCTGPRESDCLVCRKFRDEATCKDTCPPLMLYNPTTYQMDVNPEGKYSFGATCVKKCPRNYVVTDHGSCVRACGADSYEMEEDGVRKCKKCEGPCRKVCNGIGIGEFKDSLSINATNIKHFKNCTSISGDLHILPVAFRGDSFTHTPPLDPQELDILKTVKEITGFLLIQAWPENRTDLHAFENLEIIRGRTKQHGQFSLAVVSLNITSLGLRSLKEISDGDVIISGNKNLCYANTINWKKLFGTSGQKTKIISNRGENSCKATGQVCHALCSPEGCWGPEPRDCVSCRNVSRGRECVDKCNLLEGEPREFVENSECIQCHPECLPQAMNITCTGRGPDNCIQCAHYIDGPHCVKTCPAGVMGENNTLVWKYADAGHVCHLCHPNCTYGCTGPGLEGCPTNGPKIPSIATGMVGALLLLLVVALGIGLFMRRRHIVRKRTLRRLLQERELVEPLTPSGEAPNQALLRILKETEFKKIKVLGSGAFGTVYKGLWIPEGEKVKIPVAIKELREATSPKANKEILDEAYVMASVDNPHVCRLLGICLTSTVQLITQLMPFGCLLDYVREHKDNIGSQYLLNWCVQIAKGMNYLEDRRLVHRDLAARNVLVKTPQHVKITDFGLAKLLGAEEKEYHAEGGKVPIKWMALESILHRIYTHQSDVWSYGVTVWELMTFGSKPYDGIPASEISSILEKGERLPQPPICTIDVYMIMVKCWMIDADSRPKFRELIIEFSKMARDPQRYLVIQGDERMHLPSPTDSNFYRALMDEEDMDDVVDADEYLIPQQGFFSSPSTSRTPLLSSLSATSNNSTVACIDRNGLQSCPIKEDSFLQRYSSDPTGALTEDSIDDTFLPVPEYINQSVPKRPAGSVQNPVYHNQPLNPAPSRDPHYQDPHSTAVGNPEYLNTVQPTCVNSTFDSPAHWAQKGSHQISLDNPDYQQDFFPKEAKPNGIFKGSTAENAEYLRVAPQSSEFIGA
Description: Inhibition of Epidermal Growth Factor Receptor (EGFR) autophosphorylation

Chain of Receptor tyrosine-protein kinase erbB-2 (P04626 whole entry): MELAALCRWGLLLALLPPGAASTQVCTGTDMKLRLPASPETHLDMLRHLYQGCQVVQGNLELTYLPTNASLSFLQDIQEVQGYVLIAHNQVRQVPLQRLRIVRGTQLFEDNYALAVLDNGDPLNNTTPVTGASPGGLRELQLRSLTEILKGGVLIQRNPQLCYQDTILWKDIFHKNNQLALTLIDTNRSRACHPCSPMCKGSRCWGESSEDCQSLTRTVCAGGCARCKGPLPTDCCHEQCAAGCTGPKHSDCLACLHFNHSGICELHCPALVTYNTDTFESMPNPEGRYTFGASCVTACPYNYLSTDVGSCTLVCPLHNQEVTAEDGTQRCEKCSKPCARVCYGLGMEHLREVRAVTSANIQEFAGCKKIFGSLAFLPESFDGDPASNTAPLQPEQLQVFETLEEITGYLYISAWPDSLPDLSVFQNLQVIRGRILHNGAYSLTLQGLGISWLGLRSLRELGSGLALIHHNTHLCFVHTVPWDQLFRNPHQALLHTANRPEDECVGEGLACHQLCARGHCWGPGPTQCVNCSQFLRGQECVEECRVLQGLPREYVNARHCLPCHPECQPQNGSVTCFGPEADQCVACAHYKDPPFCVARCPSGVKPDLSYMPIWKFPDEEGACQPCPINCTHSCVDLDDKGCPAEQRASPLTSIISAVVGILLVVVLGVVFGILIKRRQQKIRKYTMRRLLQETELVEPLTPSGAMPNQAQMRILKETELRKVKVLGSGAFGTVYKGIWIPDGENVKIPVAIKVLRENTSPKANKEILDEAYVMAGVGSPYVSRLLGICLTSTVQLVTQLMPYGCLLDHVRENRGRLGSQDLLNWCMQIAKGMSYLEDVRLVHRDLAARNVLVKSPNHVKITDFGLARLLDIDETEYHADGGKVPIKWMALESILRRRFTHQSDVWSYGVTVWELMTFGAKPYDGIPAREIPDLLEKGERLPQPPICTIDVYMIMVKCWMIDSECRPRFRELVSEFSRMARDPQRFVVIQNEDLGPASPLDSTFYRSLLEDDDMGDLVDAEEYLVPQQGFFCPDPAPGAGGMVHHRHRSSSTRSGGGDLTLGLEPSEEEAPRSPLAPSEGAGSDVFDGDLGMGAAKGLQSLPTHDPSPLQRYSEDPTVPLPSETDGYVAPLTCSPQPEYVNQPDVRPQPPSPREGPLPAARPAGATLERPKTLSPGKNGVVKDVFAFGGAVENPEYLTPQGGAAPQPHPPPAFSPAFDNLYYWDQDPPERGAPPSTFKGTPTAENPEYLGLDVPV

For `CCOc1cc2ncc(C#N)c(Nc3ccc(F)c(Cl)c3)c2cc1NC(=O)/C=C/CN(C)C` [PELITINIB], which IC50 [1] is on record?
The IC50 was 0.03 µg/mL (≈ 0.0641 µM).

What about the IC50 [2] of the same compound?
The IC50 was 0.317 µg/mL (≈ 0.677 µM).

What about the IC50 [3] of the same compound?
Its IC50 is 0.007 µg/mL (≈ 0.015 µM).

And the IC50 [4]?
Its IC50 is 1230 nM.

Which IC50 [1] does the source give for `C#Cc1cccc(Nc2c(C#N)cnc3cc(OCCOC)c(OCCOC)cc23)c1` here?
The IC50 was 0.173 µg/mL (≈ 0.414 µM).

And the IC50 [5]?
Its IC50 is 850 nM.

What about the IC50 [2] of the same compound?
The IC50 was 0.68 µg/mL (≈ 1.63 µM).

What about the IC50 [3] of the same compound?
Its IC50 is 0.071 µg/mL (≈ 0.17 µM).

And the IC50 [4]?
The IC50 was 11800 nM.

For `COc1cc2ncc(C#N)c(Nc3ccc(F)c(Cl)c3)c2cc1OCCCN1CCOCC1`, which IC50 [1] is on record?
Its IC50 is 0.25 µg/mL (≈ 0.531 µM).

And the IC50 [5]?
Its IC50 is 1040 nM.

And the IC50 [2]?
The IC50 was > 5 µg/mL.

And the IC50 [3]?
Its IC50 is 0.332 µg/mL (≈ 0.705 µM).

And the IC50 [4]?
The IC50 was 14700 nM.

What does the source list for `C=CC(=O)Nc1cc2c(Nc3ccc(F)c(Cl)c3)c(C#N)cnc2cc1OCCCN1CCOCC1`?
IC50 [1]: 0.12 µg/mL (≈ 0.235 µM); IC50 [5]: 80 nM; IC50 [2]: 0.77 µg/mL (≈ 1.51 µM); IC50 [3]: 0.03 µg/mL (≈ 0.0588 µM); IC50 [4]: 1690 nM

How did the IC50 [1] turn out when `C=CC(=O)Nc1cc2c(Nc3ccc(F)c(Cl)c3)ncnc2cc1OCCCN1CCOCC1` [CANERTINIB] was run?
Its IC50 is 0.083 µg/mL (≈ 0.171 µM).

And the IC50 [2]?
Its IC50 is 1.45 µg/mL (≈ 2.98 µM).

What about the IC50 [3] of the same compound?
The IC50 was 0.102 µg/mL (≈ 0.21 µM).

From ChEMBL document CHEMBL1135208, “Syntheses and EGFR and HER-2 kinase inhibitory activities of 4-anilinoquinoline-3-carbonitriles: analogues of three important 4-anilinoquinazolines currently undergoing clinical evaluation as therapeutic antitumor agents” (Bioorg Med Chem Lett, 2002)
